Test results published in patent US20170150719A1, “FUNGICIDAL PYRAZOLES AND THEIR MIXTURES” (E I DU PONT DE NEMOURS AND COMPANY, priority 2010, published 2017).

What was measured:
[1] = system: Blumeria graminis f. sp. tritici; assay: Test K (K1-K5): wheat powdery mildew, Compound 81 alone and in mixtures, observed and Colby expected control; type: in vivo; conditions: for Test K5 Obsd, disease control rating: wheat powdery mildew
Septoria tritici [2] = assay: Test M (M1-M5): wheat leaf blotch, Compound 81 alone and in mixtures, observed and Colby expected control; type: in vivo
[3] = system: Puccinia recondita f sp. tritici; assay: Test L (L1-L5): wheat leaf rust, Compound 81 alone and in mixtures, observed and Colby expected control; type: in vivo; conditions: for Test L5 Obsd, disease control rating: wheat leaf rust
Alternaria solani = assay: Test B: tomato early blight, preventive spray on tomato seedlings, visual disease rating; conditions: tomato early blight, 100 = 100% disease control; for Test B rating (% disease control): preventive spray, rating without asterisk; for Test B rating (disease control): 0 = no disease control relative to the controls
Botrytis cinerea = assay: Test A: tomato Botrytis, preventive spray on tomato seedlings, visual disease rating; conditions: tomato Botrytis, 100 = 100% disease control; for Test A rating (% disease control): preventive spray, 0 = no control relative to controls, rating without asterisk; for Test A rating (disease control): 0 = no disease control relative to the controls
Phytophthora infestans = assay: whole plant or invertebrate; type: in vivo; conditions: tomato late blight, preventive spray; 100 = 100% disease control; rating without asterisk
Septoria nodorum = assay: Test E: Septoria glume blotch, preventive spray on wheat seedlings, visual disease rating; conditions: 100 = 100% disease control; for Test E rating (% disease control): Septoria glume blotch on wheat, preventive spray, rating without asterisk; for Test E rating (disease control): Septoria glume blotch, 0 = no disease control relative to the controls
[4] = system: Puccinia recondita f. sp. tritici; assay: Test G: wheat leaf rust, spray after inoculation (curative) on wheat seedlings, visual disease rating; type: in vivo; conditions: 100 = 100% disease control; for Test G rating (% disease control): spray after inoculation, rating without asterisk; for Test G rating (disease control): sprayed after inoculation, 0 = no disease control
From the text: (§1) A hyphen (-) indicates no test results.

[5] = system: Puccinia recondita f. sp. tritici; assay: Test H: wheat leaf rust, preventive spray on wheat seedlings, visual disease rating; conditions: wheat leaf rust, 100 = 100% disease control; for Test H rating (% disease control): preventive spray, rating without asterisk; for Test H rating (disease control): sprayed the day before inoculation, 0 = no disease control
[6] = system: Blumeria graminis f. sp. tritici; assay: Test I: wheat powdery mildew, preventive spray on wheat seedlings, visual disease rating; conditions: wheat powdery mildew, 100 = 100% disease control; for Test I rating (% disease control): preventive spray, rating without asterisk; for Test I rating (disease control): 0 = no disease control relative to the controls
Septoria tritici [7] = assay: Test F: wheat leaf blotch, preventive spray on wheat seedlings, visual disease rating; type: in vivo; conditions: 100 = 100% disease control, 0 = no disease control relative to the controls
From the text: as §1

CC(C)CC(C)c1sccc1NC(=O)c1cn(C)nc1C(F)(F)F (stereo not drawn) [penthiopyrad]
Test K3 Obsd ([1]; component (b) 0.08 ppm alone): 0%
Test K3 Obsd ([1]; component (b) 0.4 ppm alone): 0%
Test K3 Obsd ([1]; component (b) 2 ppm alone): 99%
Test K3 Obsd ([1]; component (b) 10 ppm alone): 100%
Test M2 Obsd, disease control rating (Septoria tritici [2]; component (b) 0.08 ppm alone): 0%
Test M2 Obsd, disease control rating (Septoria tritici [2]; component (b) 0.4 ppm alone): 0%
Test L5 Obsd, disease control rating ([3]; component (b) 0.016 ppm alone): 9%
Test L5 Obsd, disease control rating ([3]; component (b) 0.08 ppm alone): 55%
Test L5 Obsd, disease control rating ([3]; component (b) 0.4 ppm alone): 68%
Test L5 Obsd, disease control rating ([3]; component (b) 2 ppm alone): 99%

Cn1cc(C(=O)Nc2ccc(F)cc2-c2ccc(Cl)c(Cl)c2)c(C(F)F)n1 [bixafen]
Test K3 Obsd ([1]; component (b) 0.08 ppm alone): 0%
Test K3 Obsd ([1]; component (b) 0.4 ppm alone): 0%
Test K3 Obsd ([1]; component (b) 2 ppm alone): 64%
Test K3 Obsd ([1]; component (b) 10 ppm alone): 99%
Test M2 Obsd, disease control rating (Septoria tritici [2]; component (b) 0.08 ppm alone): 0%
Test M2 Obsd, disease control rating (Septoria tritici [2]; component (b) 0.4 ppm alone): 33%
Test M2 Obsd, disease control rating (Septoria tritici [2]; component (b) 2 ppm alone): 89%
Test L3 Obsd ([3]; component (b) 0.08 ppm alone): 9%
Test L3 Obsd ([3]; component (b) 0.4 ppm alone): 88%
Test L3 Obsd ([3]; component (b) 2 ppm alone): 99%
Test L3 Obsd ([3]; component (b) 10 ppm alone): 100%

C=CCOC1=NS(=O)(=O)c2ccccc21 [probenazole]
Test K1 Obsd ([1]; component (b) 10 ppm alone): 68%
Test K1 Obsd ([1]; component (b) 40 ppm alone): 21%
Test K1 Obsd ([1]; component (b) 200 ppm alone): 71%
Test M1 Obsd, disease control rating (Septoria tritici [2]; component (b) 10 ppm alone): 0%
Test M1 Obsd, disease control rating (Septoria tritici [2]; component (b) 40 ppm alone): 0%
Test M1 Obsd, disease control rating (Septoria tritici [2]; component (b) 200 ppm alone): 0%
Test L1 Obsd ([3]; component (b) 10 ppm alone): 9%
Test L1 Obsd ([3]; component (b) 40 ppm alone): 18%
Test L1 Obsd ([3]; component (b) 200 ppm alone): 18%

CCOc1ccc(-c2c(C)nn(C)c2Nc2c(F)cc(Cl)cc2F)c(F)c1 [compound 189]
Test B rating (% disease control) (Alternaria solani): 88%
Test A rating (% disease control) (Botrytis cinerea): 100%
Test C rating (% disease control) (Phytophthora infestans): 0%
Test E rating (% disease control) (Septoria nodorum): 90%
Test G rating (% disease control) [4]: 0%
Test H rating (% disease control) [5]: 98%
Test I rating (% disease control) [6]: 98%

CC(C)C1C2CCC1c1c(NC(=O)c3cn(C)nc3C(F)F)cccc12 (stereo not drawn) [isopyrazam]
Test K3 Obsd ([1]; component (b) 0.08 ppm alone): 0%
Test K3 Obsd ([1]; component (b) 0.4 ppm alone): 50%
Test K3 Obsd ([1]; component (b) 2 ppm alone): 99%
Test K3 Obsd ([1]; component (b) 10 ppm alone): 99%
Test M2 Obsd, disease control rating (Septoria tritici [2]; component (b) 0.08 ppm alone): 0%
Test M2 Obsd, disease control rating (Septoria tritici [2]; component (b) 0.4 ppm alone): 77%
Test M2 Obsd, disease control rating (Septoria tritici [2]; component (b) 2 ppm alone): 93%
Test M2 Obsd, disease control rating (Septoria tritici [2]; component (b) 10 ppm alone): 100%
Test L5 Obsd, disease control rating ([3]; component (b) 0.016 ppm alone): 68%
Test L5 Obsd, disease control rating ([3]; component (b) 0.08 ppm alone): 89%
Test L5 Obsd, disease control rating ([3]; component (b) 0.4 ppm alone): 100%
Test L5 Obsd, disease control rating ([3]; component (b) 2 ppm alone): 100%

CCCN(CC)CC1COC2(CCC(C(C)(C)C)CC2)O1 (stereo not drawn) [spiroxamine]
Test K3 Exp ([1]; component (b) 0.4 ppm alone): 0%
Test K3 Obsd ([1]; component (b) 0.4 ppm alone): 0%
Test K3 Exp ([1]; component (b) 2 ppm alone): 0%
Test K3 Obsd ([1]; component (b) 2 ppm alone): 0%
Test K3 Exp ([1]; component (b) 10 ppm alone): 0%
Test K3 Obsd ([1]; component (b) 10 ppm alone): 0%
Test K3 Exp ([1]; component (b) 40 ppm alone): 91%
Test K3 Obsd ([1]; component (b) 40 ppm alone): 99%
Test M5 Obsd disease control rating (Septoria tritici [2]; component (b) alone 10 ppm): 0%
Test M5 Obsd disease control rating (Septoria tritici [2]; component (b) alone 40 ppm): 3%
Test M5 Obsd disease control rating (Septoria tritici [2]; component (b) alone 200 ppm): 0%

CCOc1ccc(-c2c(C)nn(C)c2Nc2c(F)cc(F)cc2Cl)c(F)c1 [compound 188]
Test B rating (% disease control) (Alternaria solani): 99%
Test A rating (% disease control) (Botrytis cinerea): 100%
Test C rating (% disease control) (Phytophthora infestans): 0%
Test E rating (% disease control) (Septoria nodorum): 92%
Test G rating (% disease control) [4]: 0%
Test H rating (% disease control) [5]: 98%
Test I rating (% disease control) [6]: 98%

Cc1nn(C)c(Nc2c(F)cc(F)cc2Br)c1-c1ccc(F)cc1Br [Compound 195, N-(2-bromo-4,6-difluorophenyl)-4-(2-bromo-4-fluorophenyl)-1,3-dimethyl-1H-pyrazol-5-amine]
Test B rating (% disease control) (Alternaria solani): 100%
Test C rating (% disease control) (Phytophthora infestans): 0%
Test E rating (% disease control) (Septoria nodorum): 99%
Test G rating (% disease control) [4]: 89%

CC(C1CC1)C(O)(Cn1cncn1)c1ccc(Cl)cc1 (stereo not drawn) [cyproconazole]
Test K5 Obsd, disease control rating ([1]; component (b) 0.016 ppm alone): 64%
Test K5 Obsd, disease control rating ([1]; component (b) 0.08 ppm alone): 64%
Test K5 Obsd, disease control rating ([1]; component (b) 0.4 ppm alone): 79%
Test K5 Obsd, disease control rating ([1]; component (b) 2 ppm alone): 96%
Test M2 Obsd, disease control rating (Septoria tritici [2]; component (b) 0.4 ppm alone): 0%
Test M2 Obsd, disease control rating (Septoria tritici [2]; component (b) 2 ppm alone): 0%
Test M2 Obsd, disease control rating (Septoria tritici [2]; component (b) 10 ppm alone): 0%
Test M2 Obsd, disease control rating (Septoria tritici [2]; component (b) 40 ppm alone): 98%
Test L5 Obsd, disease control rating ([3]; component (b) 0.016 ppm alone): 27%
Test L5 Obsd, disease control rating ([3]; component (b) 0.08 ppm alone): 80%
Test L5 Obsd, disease control rating ([3]; component (b) 0.4 ppm alone): 92%
Test L5 Obsd, disease control rating ([3]; component (b) 2 ppm alone): 100%

CC1CCN(c2c(-c3c(F)cc(F)cc3F)c(Cl)nc3ncnn23)CC1 [BAS600, 5-chloro-6-(2,4,6-trifluorophenyl)-7-(4-methylpiperidin-1-yl)[1,2,4]triazolo[1,5-a]pyrimidine]
Test K3 Obsd ([1]; component (b) 0.08 ppm alone): 0%
Test K3 Obsd ([1]; component (b) 0.4 ppm alone): 0%
Test K3 Obsd ([1]; component (b) 2 ppm alone): 96%
Test K3 Obsd ([1]; component (b) 10 ppm alone): 100%
Test M2 Obsd, disease control rating (Septoria tritici [2]; component (b) 0.016 ppm alone): 0%
Test M2 Obsd, disease control rating (Septoria tritici [2]; component (b) 0.08 ppm alone): 0%
Test M2 Obsd, disease control rating (Septoria tritici [2]; component (b) 0.4 ppm alone): 93%
Test M2 Obsd, disease control rating (Septoria tritici [2]; component (b) 2 ppm alone): 100%
Test L3 Obsd ([3]; component (b) 0.08 ppm alone): 74%
Test L3 Obsd ([3]; component (b) 0.4 ppm alone): 88%
Test L3 Obsd ([3]; component (b) 2 ppm alone): 99%
Test L3 Obsd ([3]; component (b) 10 ppm alone): 100%

Cc1nn(C)c(Nc2c(F)cccc2Cl)c1-c1ccc(F)cc1F [Compound 275, N-(2-chloro-6-fluorophenyl)-4-(2,4-difluorophenyl)-1,3-dimethyl-1H-pyrazol-5-amine]
Test B rating (% disease control) (Alternaria solani): 99%
Test C rating (% disease control) (Phytophthora infestans): 0%
Test E rating (% disease control) (Septoria nodorum): 60%
Test G rating (% disease control) [4]: 9%

Fc1ccc(Oc2ccnc3cc(Cl)cc(Cl)c23)cc1 [quinoxyfen]
Test K5 Obsd, disease control rating ([1]; component (b) 0.016 ppm alone): 21%
Test K5 Obsd, disease control rating ([1]; component (b) 0.08 ppm alone): 29%
Test K5 Obsd, disease control rating ([1]; component (b) 0.4 ppm alone): 64%
Test K5 Obsd, disease control rating ([1]; component (b) 2 ppm alone): 93%
Test M5 Obsd disease control rating (Septoria tritici [2]; component (b) alone 10 ppm): 0%
Test M5 Obsd disease control rating (Septoria tritici [2]; component (b) alone 40 ppm): 0%
Test M5 Obsd disease control rating (Septoria tritici [2]; component (b) alone 200 ppm): 8%
Test L1 Obsd ([3]; component (b) 10 ppm alone): 0%
Test L1 Obsd ([3]; component (b) 40 ppm alone): 0%
Test L1 Obsd ([3]; component (b) 200 ppm alone): 0%

COc1ccc(-c2c(C)nn(C)c2Oc2ccc(C#N)cc2Cl)c(Br)c1 [compound 99]
Test B rating (disease control) (Alternaria solani): 0%
Test A rating (disease control) (Botrytis cinerea): 99%
Test E rating (disease control) (Septoria nodorum): 0%
Test G rating (disease control) [4]: 0%
Test H rating (disease control) [5]: 97%
Test F rating (disease control) (Septoria tritici [7]): 100%
Test I rating (disease control) [6]: 89%

Cc1nn(C)c(Nc2c(F)cc(F)cc2F)c1-c1ccccc1F [compound 53]
Test B rating (disease control) (Alternaria solani): 99%
Test A rating (disease control) (Botrytis cinerea): 97%
Test E rating (disease control) (Septoria nodorum): 87%
Test G rating (disease control) [4]: 0%
Test H rating (disease control) [5]: 95%
Test F rating (disease control) (Septoria tritici [7]): 100%
Test I rating (disease control) [6]: 99%
